# Measurements as given in US20230075368A1, “IDENTIFICATION OF AN EGFR-BIN3 PATHWAY THAT ACTIVELY SUPPRESSES INVASION AND REDUCES TUMOR SIZE IN GLIOBLASTOMA” (The United States Govemment as represented by the …, priority 2020, published 2023).
# Tests used:
# [1] = system: orthotopic glioblastoma tumors (Mayo PDXs); assay: Orthotopic glioblastoma xenotransplant model treated with tofacitinib; type: in vivo, mice
# Experimental: 4 to 6 weeks old female athymic nude mice were purchased from Charles River Laboratories. Mayo PDXs were injected into the right corpus striatum of the brains of 6-8 week-old nude mice using a stereotactic frame. […] Kaplan-Maier survival curves were calculated using GraphPad Prism 7.0 software. Alzet Osmotic pumps were installed for brain delivery of EGF or vehicle in tumor bearing mice. To monitor the mice with orthotropic xenografts, MRI was performed at the Mouse MRI Core, Advanced Imaging Research Center, at UT Southwestern.
# Knockdown efficiency of HB-EGF in GBM39 control shRNA (GBM39shCtrl) and HB-EGF shRNA (GBM39shHB-EGF_1, GBM39shHB-EGF_2) clones was confirmed by ELISA (FIG. 21I). […] The Western blot images are representative of three independent biological replicates. Actin served as loading control. Scale bars: […]. Data are represented as mean±SEM from three independent experiments. ***P<0.001, […], n.s. not significant, unpaired two-tailed t-test.
# GBM12 and GBM6 cells = assay: Scratch-wound assay; type: cell-based, human; settings: EGF 50 ng/ml, 24 hours
# Experimental: Cells were cultured in 6 well plate until they reached around 100% confluence. A scratch wound was produced on the monolayer using a sterile 200 ul pipette tip. The cell cultured with serum free DMEM containing EGF (50 ng/ml) or vehicle control. Images of wound were captured 0 and 24 hours after scratch generation.
# Referring to FIG. 4A-D, an analysis of glioma cell migration by in vitro scratch assays is shown. […] Data are represented as mean±SEM from three independent experiments. ** P<0.01, unpaired two-tailed t-test.
# [2] = GBM12V tumors, tofacitinib 50 mg/kg, oral gavage
# [3] = orthotopic GBM39 with HBEGF silenced, tofacitinib treated
Compound,"survival benefit ([1]; GBM12TGFα tumors, tofacitinib 50 mg/kg, oral gavage)","survival [1, 2]","tumor invasion (H&E, SMI-31) [1, 2]","infiltration of surrounding normal tissue ([1]; GBM12 or GBM6 orthotopic model, 40 mg/kg/day for 3 weeks)","survival ([1]; GBM12 or GBM6 orthotopic model, 40 mg/kg/day for 3 weeks, from one week after intracranial injection)",responsiveness of orthotopic tumors ([1]; GBM39 with HBEGF silenced vs. controls),"survival [1, 3]","tumor invasiveness [1, 3]",migration (scratch wound closure) (GBM12 and GBM6 cells)
C[C@@H]1CCN(C(=O)CC#N)C[C@@H]1N(C)c1ncnc2[nH]ccc12 [tofacitinib],no additional benefit,significant improvement in survival,decreased invasion,do not infiltrate the surrounding normal tissue,prolong survival,more responsive,improved,less invasive,
EGF: Recombinant human EGF (AF-100) from Peprotech; EGFR ligand,,,,,,,,,suppressing migration
